According to patent US12569472B2, “PPARγ agonists for treatment of kidney disease” (The Research Institute at Nationwide Children's Hospital, priority 2020, dated 2026):
“And” between values parts separate entries of the source, which are not always exact repeats. Identical values can stand only once.

Assays:
[1] = system: PAN-induced nephropathy in male Wistar rats; test: PAN-induced nephropathy rat model: proteinuria (urine protein:creatinine ratio); assay type: in vivo; conditions: Day 11, Pio 10 mg/kg or GQ-16 40 mg/kg daily oral gavage; for Urinary protein/creatinine ratio (UPCr): PAN 50 mg/kg IV
Description: (§1) This study was approved by the Institution Animal Care and Use Committee at Nationwide Children's Hospital, and their guidelines were followed when performing the experiments. Male Wistar rats were intravenously (IV) injected with puromycin aminonucleoside (PAN) (Sigma-Aldrich, St. Louis, Mo.) (50 mg/kg) on Day 0, which induced proteinuria, while control rats were given IV injections of saline. The rats were treated by oral gavage with Pioglitazone (Alfa Aesar, Tewksbury, Mass.) (10 mg/kg), GQ-16 (40 mg/kg), or a sham vehicle daily. GQ-16 and Pio dosages were determined based on previous studies, and GQ-16 was synthesized as previously described. Amato et al., The Journal of biological chemistry, 287: 28169-28179 (2012). Spot urine and serum were collected, and body weights were recorded throughout the study. […] Kerlin et al., Journal of the American Society of Nephrology: JASN, 26: 3009-3019 (2015). Kidneys were harvested, and the glomeruli were isolated using the sequential sieving method. Agrawal et al., Sci Rep, 6: 24392 (2016). Liver and white adipose tissue (WAT) epididymal fat were collected and flash frozen in liquid nitrogen.
Urine was collected from rats daily throughout the study and resolved using sodium dodecyl sulfate-polyacrylamide gel electrophoresis (SDS-PAGE) on an 8% gel and stained with Coomassie Brilliant Blue G-250 (Alfa Aesar, Tewksbury, MA) to visualize the albumin bands. Urine protein:creatinine ratio (UPCr) analyses were performed on urine samples from Day 11 at the time of peak proteinuria by Antech Diagnostics GLP (Morrisville, N.C.) to quantify the proteinuria values.

[2] = system: PAN-induced nephropathy in male Wistar rats; test: Serum chemistry (albumin, cholesterol) in PAN-nephrotic rats; assay type: in vivo, rat; conditions: for mean reduction of PAN-induced hypercholesterolemia / serum total cholesterol: Day 11; for serum albumin: Day 11, Pio 10 mg/kg or GQ-16 40 mg/kg daily
Description: as §1
Serum albumin and cholesterol were measured using the ACE® albumin and cholesterol reagents (Alfa Wasserman Diagnostic Technologies, LLC, West Caldwell, NJ) on the Vet Axcel (Alfa Wasserman Diagnostic Technologies, LLC, West Caldwell, NJ) at the Clinical Pathology Services, The Ohio State University's College of Veterinary Medicine, according to the manufacturer's instructions.

thrombin generation [3] = test: Thrombin generation assay (TGA) on platelet poor plasma of rats; assay type: in vivo, rat; conditions: PAN rats, plasma Day 11; for ETP (endogenous thrombin potential): Pio 10 mg/kg or GQ-16 40 mg/kg daily
Description: as §1
Thrombin generation assays (TGA) were performed using the Technothrombin® TGA Kit (Technoclone, Vienna, Austria) and Reagent C (RC) Low on PPP samples collected from the rats to determine various parameters such as the endogenous thrombin potential (ETP) and peak thrombin concentration. These assays were performed at least in duplicate on various rat groups (n=4-7/group). Briefly, PPP at 1:1 ratio with buffer was added to black well plates, and RC Low added. Then TGA substrate was added just before reading on a Spectramax M2 Fluorescent Plate Reader (Molecular Devices, San Jose, CA).

[4] = system: glomerular gene expression (Nphs1, Nrf2, Trpc6, Pparg); test: Glomerular gene expression by qRT-PCR; assay type: in vivo, rat; conditions: PAN rats
Description: as §1
(§2) Total RNA was extracted from isolated WAT epididymal fat and liver tissue samples using the RNeasy kit (Qiagen, Germantown, MD), following the manufacturer's instructions. Tissue samples in lysis buffer were placed in lock tubes with stainless-steel disruption beads and lysed at 30.0 Hz for 4 minutes using the Qiagen TissueLyser (Germantown, MD), followed by RNA isolation from the resulting lysate. Total RNA was isolated from glomeruli tissue samples using the mirVana™ Isolation Kit (Invitrogen, Carlsbad, CA), according to the manufacturer's instructions. Yield and purity were calculated for all isolated RNA samples by measuring the absorbance at 260, 280, and 230 nm and the ratios (both) with a spectrophotometer. 500 ng-1 μg of RNA was subjected to DNase (Invitrogen, Carlsbad, CA) digestion at room temperature for 15 minutes, which was then inactivated with 25 mM EDTA at 65° C. for 10 min. RNA was reverse transcribed using the iScript cDNA Synthesis Kit (Bio-Rad, Hercules, CA) according to the manufacturer's instructions. cDNA was used for quantitative reverse transcription-polymerase chain reaction (qRT-PCR) using gene specific and house-keeping primers. SYBR green (Bio-Rad, Hercules, Calif.) qRT-PCR was performed on the Applied Biosystems 7500 Real-Time PCR System. The PCR conditions were 95° C. for 10 minutes, 40× (95° C. for 15 seconds, 60° C. for 1 minute), followed by a melt curve to ensure specific products. The annealing temperature was at 60° C. for all genes except Pgc1a, Pparg, and Cd36 for which 52° C. annealing temperature was used. […]

[5] = system: hepatic gene expression (Pcsk9, Abca1, F2, SerpinC1); test: Hepatic gene expression by qRT-PCR; assay type: in vivo, rat
Description: as §1, §2

[6] = system: white adipose tissue gene expression (Ap2, Adipoq, Adipsin, Cd36, Pgc1a, Pparg); test: White adipose tissue (epididymal fat) gene expression by qRT-PCR; assay type: in vivo, rat; conditions: PAN rats
Description: as §1
Total RNA was extracted from isolated WAT epididymal fat and liver tissue samples using the RNeasy kit (Qiagen, Germantown, MD), following the manufacturer's instructions. Tissue samples in lysis buffer were placed in lock tubes with stainless-steel disruption beads and lysed at 30.0 Hz for 4 minutes using the Qiagen TissueLyser (Germantown, MD), followed by RNA isolation from the resulting lysate. Total RNA was isolated from glomeruli tissue samples using the mirVana™ Isolation Kit (Invitrogen, Carlsbad, CA), according to the manufacturer's instructions. Yield and purity were calculated for all isolated RNA samples by measuring the absorbance at 260, 280, and 230 nm and the ratios (both) with a spectrophotometer. 500 ng-1 μg of RNA was subjected to DNase (Invitrogen, Carlsbad, CA) digestion at room temperature for 15 minutes, which was then inactivated with 25 mM EDTA at 65° C. for 10 min. RNA was reverse transcribed using the iScript cDNA Synthesis Kit (Bio-Rad, Hercules, CA) according to the manufacturer's instructions. cDNA was used for quantitative reverse transcription-polymerase chain reaction (qRT-PCR) using gene specific and house-keeping primers. SYBR green (Bio-Rad, Hercules, Calif.) qRT-PCR was performed on the Applied Biosystems 7500 Real-Time PCR System. The PCR conditions were 95° C. for 10 minutes, 40× (95° C. for 15 seconds, 60° C. for 1 minute), followed by a melt curve to ensure specific products. The annealing temperature was at 60° C. for all genes except Pgc1a, Pparg, and Cd36 for which 52° C. annealing temperature was used. The melt curve conditions were 95° C. for 15 seconds, 60° C. for 1 minute, 30 seconds incremental increase to 95° C. and 60° C. for 15 seconds. The ΔΔCt method was used to analyze the results, including normalization to housekeeping genes (Rpl6 44 for glomeruli, Ppia 45, 46 for fat and liver). Pfaffl, M W, Nucleic acids research, 29: e45, 2001. Due to melt curve variation for Trpc6, amplified samples were also resolved on a 2% agarose gel, and densitometry was performed using ImageJ (National Institutes of Health, Bethesda, MD) software. Each gene was tested in triplicates for each tissue on at least three different rats per group.

P-PPARγ (Ser273) = target: T1, P-PPARγ (Ser273) (Rattus norvegicus, UniProt O88275); test: Western blot of glomerular P-PPARγ (Ser273) / total PPARγ; assay type: in vivo; conditions: PAN-nephrotic rats
T1 construct: To isolate protein from the glomeruli, liver, and fat tissues, the samples were lysed; from tissue; host or cells: glomeruli isolated from kidneys of male Wistar rats
T1 sequence (O88275 1-505): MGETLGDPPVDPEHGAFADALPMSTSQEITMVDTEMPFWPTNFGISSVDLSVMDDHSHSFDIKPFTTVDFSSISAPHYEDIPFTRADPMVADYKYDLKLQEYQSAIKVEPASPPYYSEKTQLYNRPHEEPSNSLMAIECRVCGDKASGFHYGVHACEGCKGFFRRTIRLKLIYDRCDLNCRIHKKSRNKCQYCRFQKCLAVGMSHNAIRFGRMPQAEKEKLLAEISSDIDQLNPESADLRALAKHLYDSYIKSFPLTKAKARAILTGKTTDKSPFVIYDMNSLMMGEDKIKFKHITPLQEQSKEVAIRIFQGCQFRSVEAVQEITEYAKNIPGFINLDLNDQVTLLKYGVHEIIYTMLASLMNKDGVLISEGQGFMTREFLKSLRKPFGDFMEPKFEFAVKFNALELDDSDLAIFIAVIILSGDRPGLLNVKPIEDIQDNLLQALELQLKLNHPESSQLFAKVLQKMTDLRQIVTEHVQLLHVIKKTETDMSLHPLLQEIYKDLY
Description: Male Wistar rats were intravenously (IV) injected with puromycin aminonucleoside (PAN) (Sigma-Aldrich, St. Louis, Mo.) (50 mg/kg) on Day 0, which induced proteinuria, while control rats were given IV injections of saline. The rats were treated by oral gavage with Pioglitazone (Alfa Aesar, Tewksbury, Mass.) (10 mg/kg), GQ-16 (40 mg/kg), or a sham vehicle daily. […] Spot urine and serum were collected, and body weights were recorded throughout the study. […] Kidneys were harvested, and the glomeruli were isolated using the sequential sieving method.
To isolate protein from the glomeruli, liver, and fat tissues, the samples were lysed in a lock tube with RIPA buffer (1M Tris HCl, 0.5M EDTA, 5M NaCl, 10% SDS) containing protease inhibitor cocktail (Thermo Scientific, Waltham, MA) and phosphatase inhibitor cocktail (Alfa Aesar, Tewksbury, MA) and a stainless-steel disruption bead using a Qiagen TissueLyser (Germantown, Md.). Following lysis/homogenization at 30.0 Hz for 4 minutes (liver and fat) or 1 minute (glomeruli), samples were centrifuged for 10 minutes at 4° C. at 12,000 rpm. The supernatant was collected, and the proteins were resolved by SDS-PAGE and transferred to an Immobilon-P polyvinylidene difluoride (PVDF) Transfer Membrane (Millipore Sigma, St. Louis, MO). […] Protein bands were detected by chemiluminescence using the Chemidoc MP Imaging System (Bio-Rad, Hercules, CA). […]

[7] = Body weight in PAN-nephrotic rats; assay type: in vivo, rat
Description: as §1

PPARγ = target: T2, PPARγ (Homo sapiens, UniProt P37231); conditions: cited from earlier work
T2 sequence (P37231 1-505): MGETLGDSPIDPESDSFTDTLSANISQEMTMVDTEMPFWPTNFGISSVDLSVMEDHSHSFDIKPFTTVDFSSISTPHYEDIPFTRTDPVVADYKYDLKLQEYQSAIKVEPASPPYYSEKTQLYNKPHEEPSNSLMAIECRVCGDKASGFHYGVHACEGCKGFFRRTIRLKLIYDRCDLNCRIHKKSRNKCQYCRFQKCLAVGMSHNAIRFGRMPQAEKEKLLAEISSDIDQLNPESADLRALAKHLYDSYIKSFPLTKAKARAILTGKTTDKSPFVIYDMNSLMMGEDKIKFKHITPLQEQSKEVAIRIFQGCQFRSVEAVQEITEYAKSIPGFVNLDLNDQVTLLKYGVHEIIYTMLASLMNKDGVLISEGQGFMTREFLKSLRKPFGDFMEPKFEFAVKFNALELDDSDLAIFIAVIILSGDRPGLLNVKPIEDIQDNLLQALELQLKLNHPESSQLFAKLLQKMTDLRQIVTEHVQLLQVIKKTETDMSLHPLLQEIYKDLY

[8] = target: T3, PPARγ phosphorylation at Ser273 (Homo sapiens, UniProt P37231); conditions: in vitro assay; cited from earlier work
T3 sequence (P37231 1-505): T2 sequence (P37231 1-505)

diabetic mice = conditions: in the absence of weight gain and edema; cited from earlier work
thrombin generation [9] = conditions: previous study; cited from earlier work
[10] = in vivo; cited from earlier work

COc1ccc(Br)cc1/C=C1\SC(=O)N(Cc2ccc(C)cc2)C1=O [GQ-16, 5-(5-bromo-2-methoxy-benzylidine)-3-(4-methyl-benzyl)-thiazolidine-2,4-dione]
Urinary protein/creatinine ratio (UPCr) [1]: 8.01 ± 3.54 mg/mg
mean reduction in PAN-induced proteinuria [1]: 84% and 81%
mean reduction of PAN-induced hypercholesterolemia [2]: 86%
serum total cholesterol [2]: 93.14 ± 13.36 mg/dL
serum albumin [2]: 2.64 ± 0.15 g/dL
Lag Phase (thrombin generation [3]): 9.250 ± 1.532 min
Peak Thrombin (thrombin generation [3]): 134.0 ± 35.54 nM
Velocity Index (thrombin generation [3]): 19.91 ± 6.643 nM/min
ETP (endogenous thrombin potential) (thrombin generation [3]): 2544 ± 489.0 nM·min
glomerular Nphs1 expression ([4]; vs PAN): significantly restored
glomerular Nrf2 expression ([4]; vs PAN): marked restoration
glomerular Pparg expression ([4]; not significant (p=0.06)): somewhat increased
glomerular Trpc6 expression ([4]; trend only): reduction
hepatic Pcsk9 expression ([5]; PAN rats (PAN ~30 fold up)): restored to control levels
hepatic F2 expression ([5]; PAN rats, tendency, p=0.07): reduced
hepatic SerpinC1 expression ([5]; PAN rats, tendency, p=0.07): reduced
hepatic Abca1 expression ([5]; PAN rats, trend, p=0.057): ~23 fold
WAT Adipoq expression [6]: induced more robustly
WAT Adipsin (Cfd) expression [6]: induced more robustly
WAT Ap2 (Fabp4) expression [6]: ~2.2 fold
WAT Cd36 expression [6]: no significant differences
WAT Pgc1a expression [6]: trend in increase
WAT Pparg expression [6]: induced
WAT Δ exon 5 splice variant of Pparg, normalized to total Pparg [6]: further reduced
phosphorylation status of PPARγ at Ser273 (glomeruli) (P-PPARγ (Ser273)): unaltered
body weight (weight reduction of nephrotic rats) [7]: maintained
Ki (PPARγ): 160 nM
receptor phosphorylation at Ser273 [8]: block
insulin sensitivity (diabetic mice): improve

CCc1ccc(CCOc2ccc(CC3SC(=O)NC3=O)cc2)nc1 (stereo not shown) [Pio, pioglitazone, reference compound]
Urinary protein/creatinine ratio (UPCr) [1]: 13.17 ± 5.51 mg/mg
mean reduction in PAN-induced proteinuria [1]: 64%
mean reduction of PAN-induced hypercholesterolemia [2]: 80%
serum total cholesterol [2]: 97.86 ± 12.37 mg/dL
serum albumin [2]: 2.34 ± 0.14 g/dL
Lag Phase (thrombin generation [3]): 7.714 ± 0.6974 min
Peak Thrombin (thrombin generation [3]): 180.8 ± 29.50 nM
Velocity Index (thrombin generation [3]): 34.67 ± 8.448 nM/min
ETP (endogenous thrombin potential) (thrombin generation [3]): 3509 ± 427.8 nM·min
WAT Ap2 (Fabp4) expression [6]: ~3.4 fold
body weight (weight reduction of nephrotic rats) [7]: did not show any significant difference from control rats
ETP in healthy control rats (thrombin generation [9]): significantly increased
half-life [10]: 8 to 9 h
time of peak (systemic) [10]: 1.5 to 2 h
